Data from US11078259B2, “Methods and compositions for promoting thermogenic potential” (Joslin Diabetes Center, Inc., priority 2015, dated 2021).

Tested on: UCP1 and DIO2 expression in differentiated hBA
Assay: Q-RT-PCR for UCP1 and DIO2 in differentiated hBA treated with norepinephrine or browning agents
Format: cell-based, human
Details: hBAs from subject 2; 1 uM norepinephrine (NE) for 4 h
Protocol: FIG. 4A depicts total cellular respiration rate (OCR) measured using the Seahorse extracellular flux analyzer in differentiated hWA and hBA from Sub1 and Sub2 that were treated for 4 h with 10 uM forskolin (Fsk). The same number of cells was used in the assay. Data are presented as mean±s.e.m. (n=10; two-tailed Student's t-test; *P<0.05, **P<0.01, ***P<0.001). A representative experiment from a total of three independent studies is shown. FIG. 4B depicts Q-RT-PCR analysis for UCP1 and DIO2 expression in differentiated hWA and hBA from Sub1 and Sub2 that were treated for 48 h with 3.3 nM BMP7, 3.3 nM BMP8 and 50 nM FGF21. Data are presented as a fold change compared to vehicle treatment of hWA in each subject (mean±s.e.m., n=3; two-tailed Student's t-test; *P<0.05, **P<0.01, ***P<0.001). A representative experiment from a total of three independent studies is shown. […]
RNA extraction, cDNA synthesis, and quantitative real-time PCR (Q-RT-PCR) were performed as described before (Cypess, A. M., et al. Nat Med 19, 635-639, 2013; Tseng, Y. H., et al. Nature 454, 1000-1004, 2008). Q-RT-PCR assays were run in duplicates and quantified in the ABI Prism 7900 sequence-detection system using SYBR (Roche Applied Science, Indianapolis, Ind.). Relative mRNA expression was determined by the delta-Ct method and the values were normalized to the expression of 18S ribosomal RNA (18s).

NC[C@H](O)c1ccc(O)c(O)c1 [norepinephrine]
levels of UCP1 and DIO2: increasing the levels of UCP1 and DIO2
